Where a SMILES comes first, the peptide text is derived from it. [ ]: non-standard residue; d: D form. pS = N[C@@H](COP(=O)(O)O)C(=O)O
How the values were obtained:
14-3-3η [1] = target: T1, 14-3-3η (Homo sapiens, UniProt Q04917); experiment: direct binding FP assay, 14-3-3η; details: FP assay, FITC-labeled peptide; Fig. 2C and Fig. S1
T1 construct: N-terminally His6-tagged 14-3-3 full-length proteins were expressed with heterologous bacterial expression; made in house
T1 sequence (Q04917 1-246): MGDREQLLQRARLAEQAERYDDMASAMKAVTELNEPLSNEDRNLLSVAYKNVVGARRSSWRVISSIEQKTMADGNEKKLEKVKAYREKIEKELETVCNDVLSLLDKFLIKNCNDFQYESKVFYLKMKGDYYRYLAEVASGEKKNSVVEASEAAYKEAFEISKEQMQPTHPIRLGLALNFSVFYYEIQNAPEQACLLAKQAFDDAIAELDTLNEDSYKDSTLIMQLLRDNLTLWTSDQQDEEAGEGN
Protocol: (§1) For the FP assay, the 14-3-3 proteins were diluted to a protein-specific start concentration in FP buffer (10 mM HEPES, pH 7.4, 150 mM NaCl, 2 mM DTT, 0.01% Tween 20). DMSO stocks of peptides were diluted in FP buffer to a concentration of 30 nM. For the assay, 10 μl of FP buffer were pipetted in 20 wells of a 384-well Corning black round bottom plate. A dilution series with 10 μl of protein solution was performed, and 5 μl of peptide solution was added to each well for a final volume of 15 μl. The plate was incubated for 60 min at room temperature. Measurement was performed at 25 °C in a Tecan Spark20M plate reader (λex = 470 nm, λem = 525 nm). Data analysis was performed with GraphPad Prism (version 5.03), and KD values were determined via a nonlinear regression fit of dose-response curves with variable slope (four parameters).

14-3-3β/α = target: T2, 14-3-3β/α (Homo sapiens, UniProt P31946); experiment: direct binding FP assay, 14-3-3β/α; details: FITC-labeled peptide, Fig. 2C and Fig. S1
T2 construct: N-terminally His6-tagged 14-3-3 full-length proteins were expressed with heterologous bacterial expression; made in house
T2 sequence (P31946 1-246): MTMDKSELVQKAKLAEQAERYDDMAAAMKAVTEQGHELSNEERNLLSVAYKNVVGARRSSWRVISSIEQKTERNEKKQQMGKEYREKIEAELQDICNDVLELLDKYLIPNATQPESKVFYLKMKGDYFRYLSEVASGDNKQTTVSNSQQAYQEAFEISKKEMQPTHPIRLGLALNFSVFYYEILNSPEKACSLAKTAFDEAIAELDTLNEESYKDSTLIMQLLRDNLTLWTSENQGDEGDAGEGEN
Protocol: as §1

14-3-3η [2] = target: T1, 14-3-3η; experiment: isothermal titration calorimetry (ITC) with 14-3-3η; format: binding; details: T = 298 K; peptide per 14-3-3 protomer; mean ± S.D., n = 3
Protocol: The ITC experiments were performed on an automated MicroCal iTC200 (Malvern Panalytical). To prepare 14-3-3 proteins for ITC measurements, a buffer exchange to ITC buffer (50 mM HEPES, pH 7.4, 250 mM NaCl, 20 mM MgCl2) was performed on a Superdex 75 10/300 GL column (ÄKTA Pure FPLC system, GE Healthcare). For peptides 1, 7, and 17, a 500 μM solution of protein was titrated to a 50 μM solution of peptide in 18 steps (2-μl volume in 4 s, 180-s spacing) at 25 °C. For peptide 11, a 250 μM solution of protein was titrated to a 12.5 μM solution of peptide with the settings mentioned before. The reference power was set to […], and the stirring speed was set to 750 rpm. Analysis was performed using MicroCal ITC-ORIGIN analysis software.

His6-14-3-3η = experiment: pulldown of His6-14-3-3η from E. coli cell lysate with biotinylated peptides; format: binding, human; details: biotinylated peptide on streptavidin beads; NTA-Atto488 stained SDS-PAGE, Fig. 2E
Protocol: (§2) 14-3-3–overexpressing E. coli cell lysate was prepared by lysing E. coli cells via sonication in pulldown buffer and removing cell debris by ultracentrifugation (53,350 rcf, 45 min, 4 °C). 24 nmol of Streptavidin Sepharose High Performance beads (GE Healthcare) were equilibrated with pulldown buffer (50 mM HEPES, pH 7.4, 250 mM NaCl, 20 mM MgCl2) and incubated with 24 nmol of biotin-1, biotin-6, or no peptide for 45 min on ice. Afterward, the beads were washed three times with pulldown buffer. Subsequently, the beads were incubated for 120 min in the prepared cell lysate. After incubation, beads were washed three times with pulldown buffer and split in half either for direct SDS-PAGE or for competition analysis, respectively. For competition, beads incubated with biotin-1 were incubated with 96 nmol of acetylated peptide 1 for 60 min and washed three times with pulldown buffer. For SDS-PAGE, 6 nmol of beads were added per lane on a Tris-Tricine ([52]) gel and run for 120 min at 150 V. After electrophoresis, gel was fixated for 90 min in a solution of 50% water, 40% EtOH, and 10% acetic acid and consequently washed two times for 30 min in water. Staining of the His6-tagged proteins in the gel was performed in a 1:1000 dilution of a 1 μg/μl solution of NTA-Atto488 (Sigma–Aldrich) for 60 min. Access stain was removed by two washing steps, each 60 min, in water. […]

His6-14-3-3β/α = experiment: pulldown of His6-14-3-3β/α from E. coli cell lysate with biotinylated peptides; format: binding, human; details: biotinylated peptide on streptavidin beads; NTA-Atto488 stained SDS-PAGE, Fig. S2B
Protocol: as §2

CC(=O)N[C@@H](CC(N)=O)C(=O)N[C@@H](CCCCN)C(=O)N[C@@H](CC(N)=O)C(=O)N[C@@H](C)C(=O)N[C@@H](CC(N)=O)C(=O)N[C@@H](COP(=O)(O)O)C(=O)N[C@@H](CO)C(=O)N1CCC[C@H]1C(=O)N[C@H](C(=O)O)C(C)C [compound 1] (Ac-NKNAN[pS]SPV-OH)
relative affinity of 14-3-3η compared with 14-3-3σ (relative affinity = 1) (14-3-3η [1]): 18.6 fold | relative affinity of 14-3-3β/α compared with 14-3-3σ (relative affinity = 1) (14-3-3β/α): 5.7 fold | binding stoichiometry N (ITC, 14-3-3η) (14-3-3η [2]): 1.05 ± 0.02 | pulldown of His6-14-3-3η (in words) (His6-14-3-3η): binds specifically | pulldown of His6-14-3-3β/α (in words) (His6-14-3-3β/α): binds specifically
